In patent publication US8703701B2 (Indiana University Research and Technology Corporation, priority 2009, dated 2014):
Non-standard residues stand in square brackets, D forms with d. Residues, ends and D or L forms follow the SMILES beside them. *: point of attachment. Palmitoyl = CCCCCCCCCCCCCCCC(=O)*; Aib = CC(C)(N)C(=O)O

Target: T1, GLP-1 receptor (Homo sapiens, UniProt P43220)
T1 construct: expressed in transfected cells; host or cells: HEK293
Assay: cAMP induction, firefly luciferase reporter assay, GLP-1 receptor
Format: cell-based
Experimental: The ability of each peptide to induce cAMP was measured in a firefly luciferase-based reporter assay.
At the end of the incubation, 100 μL of LucLite luminescence substrate reagent (Perkin Elmer, Wellesley, Mass.) were added to each well. The plate was shaken briefly, incubated 10 min in the dark and light output was measured on MicroBeta-1450 liquid scintillation counter (Perkin-Elmer, Wellesley, Mass.).

[1] = EC50 (nM) at GLP-1 Receptor, Table 7B

T1 sequence (P43220 24-463): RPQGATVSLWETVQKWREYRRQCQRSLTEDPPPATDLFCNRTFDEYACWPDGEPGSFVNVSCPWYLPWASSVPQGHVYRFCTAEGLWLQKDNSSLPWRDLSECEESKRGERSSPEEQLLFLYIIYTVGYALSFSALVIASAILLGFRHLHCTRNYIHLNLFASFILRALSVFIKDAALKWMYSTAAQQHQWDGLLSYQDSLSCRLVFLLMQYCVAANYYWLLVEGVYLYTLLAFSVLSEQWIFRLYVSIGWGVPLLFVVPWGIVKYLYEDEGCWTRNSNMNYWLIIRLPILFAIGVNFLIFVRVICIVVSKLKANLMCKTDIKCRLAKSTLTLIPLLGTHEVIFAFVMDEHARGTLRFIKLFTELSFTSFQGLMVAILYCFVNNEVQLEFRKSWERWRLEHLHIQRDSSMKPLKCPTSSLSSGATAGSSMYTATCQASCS

## CCCCCCCCCCCCCCCC(=O)NCCCC[C@H](NC(=O)[C@H](CC(=O)O)NC(=O)[C@H](CO)NC(=O)[C@@H](NC(=O)[C@H](Cc1ccccc1)NC(=O)[C@@H](NC(=O)CNC(=O)[C@H](CCC(N)=O)NC(=O)C(C)(C)NC(=O)[C@@H](N)Cc1c[nH]cn1)[C@@H](C)O)[C@@H](C)O)C(=O)N[C@@H](CO)C(=O)N[C@@H](CCCCN)C(=O)N[C@@H](Cc1ccc(O)cc1)C(=O)N[C@@H](CC(C)C)C(=O)N[C@@H](CC(=O)O)C(=O)N[C@@H](CCC(=O)O)C(=O)N[C@@H](CCC(=O)O)C(=O)N[C@@H](C)C(=O)N[C@H](C(=O)N[C@@H](CCCNC(=N)N)C(=O)N[C@@H](CC(C)C)C(=O)N[C@@H](Cc1ccccc1)C(=O)N[C@H](C(=O)N[C@@H](CCC(=O)O)C(=O)N[C@@H](Cc1c[nH]c2ccccc12)C(=O)N[C@@H](CC(C)C)C(=O)N[C@@H](CCSC)C(=O)N[C@@H](CC(N)=O)C(=O)N[C@H](C(N)=O)[C@@H](C)O)[C@@H](C)CC)C(C)C [compound 40] (H-H[Aib]QGTFTSDK(Palmitoyl)SKYLDEEAVRLFIEWLMNT-NH2; N-terminus assumed)
[1]
  EC50: 0.024 nM

## CC[C@H](C)[C@H](NC(=O)[C@H](Cc1ccccc1)NC(=O)[C@H](CC(C)C)NC(=O)[C@H](CCCNC(=N)N)NC(=O)[C@@H](NC(=O)[C@H](C)NC(=O)[C@H](CCC(N)=O)NC(=O)[C@H](CCC(=O)O)NC(=O)[C@H](CC(=O)O)NC(=O)[C@H](CC(C)C)NC(=O)[C@H](Cc1ccc(O)cc1)NC(=O)[C@H](CCCCN)NC(=O)[C@H](CO)NC(=O)[C@H](Cc1ccc(O)cc1)NC(=O)[C@H](CC(=O)O)NC(=O)[C@H](CO)NC(=O)[C@@H](NC(=O)[C@H](Cc1ccccc1)NC(=O)[C@@H](NC(=O)CNC(=O)[C@H](CCC(N)=O)NC(=O)[C@@H](CO)NC(=O)[C@@H](N)Cc1c[nH]cn1)[C@@H](C)O)[C@@H](C)O)C(C)C)C(=O)N[C@@H](CS)C(=O)N[C@@H](Cc1c[nH]c2ccccc12)C(=O)N[C@@H](CC(C)C)C(=O)N[C@@H](CC(C)C)C(=O)N[C@@H](CC(=O)O)C(=O)N[C@H](C(N)=O)[C@@H](C)O [compound 87] (H-H[dS]QGTFTSDYSKYLDEQAVRLFICWLLDT-NH2; N-terminus assumed)
[1]
  EC50: 0.013 nM

## CSCC[C@H](NC(=O)[C@H](CC(C)C)NC(=O)[C@H](Cc1c[nH]c2ccccc12)NC(=O)[C@H](CCC(N)=O)NC(=O)[C@@H](NC(=O)[C@H](Cc1ccccc1)NC(=O)[C@H](CCC(=O)O)NC(=O)[C@H](CCCCN)NC(=O)[C@H](C)NC(=O)[C@H](CCCNC(=N)N)NC(=O)[C@H](CCCCN)NC(=O)C(C)(C)NC(=O)[C@H](CC(=O)O)NC(=O)[C@H](CC(C)C)NC(=O)[C@H](Cc1ccc(O)cc1)NC(=O)[C@H](CCCCN)NC(=O)[C@H](CO)NC(=O)[C@H](Cc1ccc(O)cc1)NC(=O)[C@H](CC(=O)O)NC(=O)[C@H](CO)NC(=O)[C@@H](NC(=O)[C@H](Cc1ccccc1)NC(=O)[C@@H](NC(=O)CNC(=O)[C@H](CCC(N)=O)NC(=O)[C@@H](CO)NC(=O)[C@@H](N)Cc1c[nH]cn1)[C@@H](C)O)[C@@H](C)O)C(C)C)C(=O)N[C@@H](CC(N)=O)C(=O)N[C@H](C(N)=O)[C@@H](C)O [compound 21]
Activity at GLP-1 Receptor EC50 (nM), Table 2A
  EC50: 0.048 nM

## CSCC[C@H](NC(=O)[C@H](CC(C)C)NC(=O)[C@H](Cc1c[nH]c2ccccc12)NC(=O)[C@H](CCC(N)=O)NC(=O)[C@@H](NC(=O)[C@H](Cc1ccccc1)NC(=O)[C@H](CCC(=O)O)NC(=O)[C@H](CCC(N)=O)NC(=O)[C@H](C)NC(=O)[C@H](CCCNC(=N)N)NC(=O)[C@H](CCCCN)NC(=O)[C@H](CO)NC(=O)[C@H](CC(=O)O)NC(=O)[C@H](CC(C)C)NC(=O)[C@H](Cc1ccc(O)cc1)NC(=O)[C@H](CCCCN)NC(=O)[C@H](CO)NC(=O)[C@H](Cc1ccc(O)cc1)NC(=O)[C@H](CC(=O)O)NC(=O)[C@H](CO)NC(=O)[C@@H](NC(=O)[C@H](Cc1ccccc1)NC(=O)[C@@H](NC(=O)CNC(=O)[C@H](CCC(N)=O)NC(=O)[C@H](CO)NC(=O)[C@@H](N)Cc1c[nH]cn1)[C@@H](C)O)[C@@H](C)O)C(C)C)C(=O)N[C@@H](CC(N)=O)C(=O)N[C@H](C(N)=O)[C@@H](C)O [Peptide 1]
GLP-1 Receptor EC50 (nM), Table 1, HEK293 cells co-transfected with receptor and CRE-luciferase
  EC50: 0.13 nM
